Measured values published in the CheMixHub viscosity set.
± gives the uncertainty stated by the source.

Experiment: xn = mol fraction of the nth substance listed

`C1CCCCC1` + CCCCCCC gave a viscosity (298.15 K, 101 kPa, x1 = 0.3947) of 0.588 mPa·s, a viscosity (298.15 K, 101 kPa, x1 = 0.4171) of 0.598 mPa·s and a viscosity (298.15 K, 101 kPa, x1 = 0.4283) of 0.604 mPa·s. It also gave a viscosity (298.15 K, 101 kPa, x1 = 0.4413) of 0.612 mPa·s, a viscosity (298.15 K, 101 kPa, x1 = 0.4536) of 0.618 mPa·s and a viscosity (298.15 K, 101 kPa, x1 = 0.4623) of 0.622 mPa·s. It also gave a viscosity (298.15 K, 101 kPa, x1 = 0.469) of 0.626 mPa·s, a viscosity (298.15 K, 101 kPa, x1 = 0.4767) of 0.629 mPa·s and a viscosity (298.15 K, 101 kPa, x1 = 0.4813) of 0.631 mPa·s. For the same compound, the viscosity (298.15 K, 101 kPa, x1 = 0.4869) was 0.634 mPa·s, the viscosity (298.15 K, 101 kPa, x1 = 0.4921) was 0.636 mPa·s and the viscosity (298.15 K, 101 kPa, x1 = 0.4949) was 0.638 mPa·s. The viscosity (298.15 K, 101 kPa, x1 = 0.499) was 0.64 mPa·s, the viscosity (298.15 K, 101 kPa, x1 = 0.5069) was 0.644 mPa·s and the viscosity (298.15 K, 101 kPa, x1 = 0.5154) was 0.648 mPa·s. It also gave a viscosity (298.15 K, 101.33 kPa, x1 = 0.1013) of 0.406 ± 0.003 mPa·s, a viscosity (298.15 K, 101.33 kPa, x1 = 0.1036) of 0.4183 ± 0.0041 mPa·s and a viscosity (298.15 K, 101.33 kPa, x1 = 0.2023) of 0.4381 ± 0.0042 mPa·s. It also gave a viscosity (298.15 K, 101.33 kPa, x1 = 0.2027) of 0.425 ± 0.003 mPa·s, a viscosity (298.15 K, 101.33 kPa, x1 = 0.2962) of 0.46 ± 0.0044 mPa·s and a viscosity (298.15 K, 101.33 kPa, x1 = 0.304) of 0.448 ± 0.004 mPa·s. For the same compound, the viscosity (298.15 K, 101.33 kPa, x1 = 0.3888) was 0.484 ± 0.0045 mPa·s, the viscosity (298.15 K, 101.33 kPa, x1 = 0.4037) was 0.475 ± 0.004 mPa·s and the viscosity (298.15 K, 101.33 kPa, x1 = 0.4752) was 0.512 ± 0.0048 mPa·s. The viscosity (298.15 K, 101.33 kPa, x1 = 0.4998) was 0.505 ± 0.004 mPa·s, the viscosity (298.15 K, 101.33 kPa, x1 = 0.5556) was 0.5415 ± 0.005 mPa·s and the viscosity (298.15 K, 101.33 kPa, x1 = 0.6018) was 0.546 ± 0.004 mPa·s. The viscosity (298.15 K, 101.33 kPa, x1 = 0.6389) was 0.5789 ± 0.0052 mPa·s, the viscosity (298.15 K, 101.33 kPa, x1 = 0.6985) was 0.594 ± 0.004 mPa·s and the viscosity (298.15 K, 101.33 kPa, x1 = 0.7049) was 0.6136 ± 0.0055 mPa·s. For the same compound, the viscosity (298.15 K, 101.33 kPa, x1 = 0.7751) was 0.6582 ± 0.0058 mPa·s, the viscosity (298.15 K, 101.33 kPa, x1 = 0.8024) was 0.661 ± 0.005 mPa·s and the viscosity (298.15 K, 101.33 kPa, x1 = 0.8468) was 0.7195 ± 0.0063 mPa·s. For the same compound, the viscosity (298.15 K, 101.33 kPa, x1 = 0.9002) was 0.751 ± 0.005 mPa·s, the viscosity (298.15 K, 101.33 kPa, x1 = 0.9096) was 0.7778 ± 0.0067 mPa·s and the viscosity (298.15 K, 101.33 kPa, x1 = 0.9735) was 0.8588 ± 0.0073 mPa·s. For the same compound, the viscosity (298.15 K, 101.33 kPa, x2 = 0.1008) was 0.776 ± 0.02 mPa·s, the viscosity (298.15 K, 101.33 kPa, x2 = 0.2001) was 0.68 ± 0.018 mPa·s and the viscosity (298.15 K, 101.33 kPa, x2 = 0.2493) was 0.641 ± 0.017 mPa·s. For the same compound, the viscosity (298.15 K, 101.33 kPa, x2 = 0.3511) was 0.578 ± 0.016 mPa·s, the viscosity (298.15 K, 101.33 kPa, x2 = 0.4012) was 0.556 ± 0.015 mPa·s and the viscosity (298.15 K, 101.33 kPa, x2 = 0.4993) was 0.52 ± 0.014 mPa·s. The viscosity (298.15 K, 101.33 kPa, x2 = 0.5726) was 0.483 ± 0.014 mPa·s, the viscosity (298.15 K, 101.33 kPa, x2 = 0.6007) was 0.479 ± 0.014 mPa·s and the viscosity (298.15 K, 101.33 kPa, x2 = 0.7471) was 0.447 ± 0.013 mPa·s. For the same compound, the viscosity (298.15 K, 101.33 kPa, x2 = 0.8984) was 0.409 ± 0.012 mPa·s, the viscosity (303.15 K, 101 kPa, x1 = 0.0998) was 0.3894 ± 0.0033 mPa·s and the viscosity (303.15 K, 101 kPa, x1 = 0.2012) was 0.4064 ± 0.0034 mPa·s. For the same compound, the viscosity (303.15 K, 101 kPa, x1 = 0.298) was 0.4275 ± 0.0035 mPa·s, the viscosity (303.15 K, 101 kPa, x1 = 0.3986) was 0.454 ± 0.0036 mPa·s and the viscosity (303.15 K, 101 kPa, x1 = 0.5009) was 0.4857 ± 0.0037 mPa·s. The viscosity (303.15 K, 101 kPa, x1 = 0.5994) was 0.524 ± 0.0039 mPa·s, the viscosity (303.15 K, 101 kPa, x1 = 0.7025) was 0.5716 ± 0.0041 mPa·s and the viscosity (303.15 K, 101 kPa, x1 = 0.7975) was 0.6321 ± 0.0043 mPa·s. The viscosity (303.15 K, 101 kPa, x1 = 0.9009) was 0.7191 ± 0.0047 mPa·s, the viscosity (303.15 K, 101.33 kPa, x1 = 0.1013) was 0.386 ± 0.003 mPa·s and the viscosity (303.15 K, 101.33 kPa, x1 = 0.2027) was 0.402 ± 0.003 mPa·s. It also gave a viscosity (303.15 K, 101.33 kPa, x1 = 0.304) of 0.422 ± 0.003 mPa·s, a viscosity (303.15 K, 101.33 kPa, x1 = 0.4037) of 0.447 ± 0.004 mPa·s and a viscosity (303.15 K, 101.33 kPa, x1 = 0.4998) of 0.477 ± 0.004 mPa·s. It also gave a viscosity (303.15 K, 101.33 kPa, x1 = 0.6018) of 0.512 ± 0.004 mPa·s, a viscosity (303.15 K, 101.33 kPa, x1 = 0.6985) of 0.556 ± 0.004 mPa·s and a viscosity (303.15 K, 101.33 kPa, x1 = 0.8024) of 0.619 ± 0.004 mPa·s. For the same compound, the viscosity (303.15 K, 101.33 kPa, x1 = 0.9002) was 0.694 ± 0.005 mPa·s, the viscosity (308.15 K, 101.33 kPa, x1 = 0.1013) was 0.365 ± 0.003 mPa·s and the viscosity (308.15 K, 101.33 kPa, x1 = 0.2027) was 0.379 ± 0.003 mPa·s. It also gave a viscosity (308.15 K, 101.33 kPa, x1 = 0.304) of 0.399 ± 0.003 mPa·s, a viscosity (308.15 K, 101.33 kPa, x1 = 0.4037) of 0.422 ± 0.003 mPa·s and a viscosity (308.15 K, 101.33 kPa, x1 = 0.4998) of 0.448 ± 0.004 mPa·s. The viscosity (308.15 K, 101.33 kPa, x1 = 0.6018) was 0.481 ± 0.004 mPa·s, the viscosity (308.15 K, 101.33 kPa, x1 = 0.6985) was 0.52 ± 0.004 mPa·s and the viscosity (308.15 K, 101.33 kPa, x1 = 0.8024) was 0.577 ± 0.004 mPa·s. It also gave a viscosity (308.15 K, 101.33 kPa, x1 = 0.9002) of 0.643 ± 0.005 mPa·s.
Work on `COC(C)=O` + CCCCCCCC yielded a viscosity (298.15 K, 101.3 kPa, x1 = 0.1268) of 0.4797 ± 0.0046 mPa·s, a viscosity (298.15 K, 101.3 kPa, x1 = 0.2408) of 0.4518 ± 0.0044 mPa·s and a viscosity (298.15 K, 101.3 kPa, x1 = 0.337) of 0.4361 ± 0.0043 mPa·s. It also gave a viscosity (298.15 K, 101.3 kPa, x1 = 0.431) of 0.4213 ± 0.0042 mPa·s, a viscosity (298.15 K, 101.3 kPa, x1 = 0.5066) of 0.4108 ± 0.0041 mPa·s and a viscosity (298.15 K, 101.3 kPa, x1 = 0.5788) of 0.4021 ± 0.004 mPa·s. It also gave a viscosity (298.15 K, 101.3 kPa, x1 = 0.644) of 0.3953 ± 0.004 mPa·s, a viscosity (298.15 K, 101.3 kPa, x1 = 0.757) of 0.3849 ± 0.0039 mPa·s and a viscosity (298.15 K, 101.3 kPa, x1 = 0.8528) of 0.3786 ± 0.0038 mPa·s.
